From patent EP2047849A1 (KTB Tumorforschungsgesellschaft mbH, priority 2007, dated 2009)
Substitutions are numbered along the chain they refer to.

What was measured:
Experiment in all cases: 33PanQinase Activity Assay (in vitro protein kinase activity assay)
Format in all cases: biochemical
Settings in all cases: recombinant purified kinase, 1 µM [γ-33P]-ATP
[1] = target: T1, CHK2 (Homo sapiens, UniProt O96017)
T1 construct: made in house; host or cells: Sf9 insect cells (baculovirus)
Protocol: (§1) Inhibition of protein kinases by compounds was measured in proprietary protein kinase activity assay (^33PanQinase® Activity Assay) using recombinant purified protein kinases. All protein kinases were expressed in Sf9 insect cells as recombinant GST-fusion proteins or His-tagged proteins by means of the baculovirus expression system. All kinases were produced from human cDNAs. Kinases were purified by affinity chromatography using either GSH-agarose (Sigma) or Ni-NTH-agarose (Qiagen). The purity of the protein kinases was examined by SDS-PAGE/Coomassie staining. Activity was measured by determination of the incorporation of radio labelled phosphate into a substrate. The reaction cocktails for all enzymes contained 60 mM HEPES-NaOH, 10 mM Tris/HCl, pH 7.5, 20 mM NaCl, 3 mM MgCl2, 3 mM MnCl2, 3 µM Na-orthovanadate, 2 mM DTT, 4% glycerol, 1 µM [γ-^33P]-ATP (approx. 6 x 10^5 cpm per well), protein kinase , and substrate. Table 1: Protein kinases inhibited with high potency in vitro by compound PQ-012, PQ-013, PQ-014, PQ-016, PQ-041, PQ-042.

[2] = target: T2, FAK (Homo sapiens, UniProt Q05397)
T2 construct: made in house; host or cells: Sf9 insect cells (baculovirus)
T2 sequence (Q05397 whole entry): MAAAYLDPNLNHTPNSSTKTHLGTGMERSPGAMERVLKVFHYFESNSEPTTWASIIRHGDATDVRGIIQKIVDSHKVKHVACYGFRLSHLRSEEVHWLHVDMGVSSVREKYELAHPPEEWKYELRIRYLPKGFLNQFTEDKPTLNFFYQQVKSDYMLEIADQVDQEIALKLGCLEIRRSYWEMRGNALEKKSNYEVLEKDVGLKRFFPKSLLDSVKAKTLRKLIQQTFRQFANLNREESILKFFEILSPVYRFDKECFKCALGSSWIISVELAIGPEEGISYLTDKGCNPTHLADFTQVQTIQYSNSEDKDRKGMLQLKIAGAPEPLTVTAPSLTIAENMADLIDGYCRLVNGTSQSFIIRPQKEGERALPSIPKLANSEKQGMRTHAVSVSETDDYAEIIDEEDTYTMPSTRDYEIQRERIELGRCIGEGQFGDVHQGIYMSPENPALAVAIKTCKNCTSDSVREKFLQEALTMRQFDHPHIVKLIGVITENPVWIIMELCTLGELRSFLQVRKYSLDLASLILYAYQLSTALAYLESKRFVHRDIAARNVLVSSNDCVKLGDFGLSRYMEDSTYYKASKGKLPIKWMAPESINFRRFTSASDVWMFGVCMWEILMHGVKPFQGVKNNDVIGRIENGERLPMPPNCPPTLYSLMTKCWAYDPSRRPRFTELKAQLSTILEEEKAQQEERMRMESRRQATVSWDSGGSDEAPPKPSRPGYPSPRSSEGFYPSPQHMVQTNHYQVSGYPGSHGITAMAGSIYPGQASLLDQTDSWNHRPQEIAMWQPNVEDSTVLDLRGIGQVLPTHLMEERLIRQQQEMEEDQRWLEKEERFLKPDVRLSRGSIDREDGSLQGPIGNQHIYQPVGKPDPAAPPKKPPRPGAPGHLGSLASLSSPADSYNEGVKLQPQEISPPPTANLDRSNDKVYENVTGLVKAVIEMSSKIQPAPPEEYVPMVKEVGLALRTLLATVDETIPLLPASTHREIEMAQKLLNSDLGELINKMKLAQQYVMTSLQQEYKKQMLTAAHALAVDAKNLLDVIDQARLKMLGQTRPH
Protocol: as §1

[3] = target: T3, FLT3 D835Y (Homo sapiens, UniProt P36888, D835Y)
T3 construct: made in house; host or cells: Sf9 insect cells (baculovirus)
T3 sequence (P36888 27-993 D835Y): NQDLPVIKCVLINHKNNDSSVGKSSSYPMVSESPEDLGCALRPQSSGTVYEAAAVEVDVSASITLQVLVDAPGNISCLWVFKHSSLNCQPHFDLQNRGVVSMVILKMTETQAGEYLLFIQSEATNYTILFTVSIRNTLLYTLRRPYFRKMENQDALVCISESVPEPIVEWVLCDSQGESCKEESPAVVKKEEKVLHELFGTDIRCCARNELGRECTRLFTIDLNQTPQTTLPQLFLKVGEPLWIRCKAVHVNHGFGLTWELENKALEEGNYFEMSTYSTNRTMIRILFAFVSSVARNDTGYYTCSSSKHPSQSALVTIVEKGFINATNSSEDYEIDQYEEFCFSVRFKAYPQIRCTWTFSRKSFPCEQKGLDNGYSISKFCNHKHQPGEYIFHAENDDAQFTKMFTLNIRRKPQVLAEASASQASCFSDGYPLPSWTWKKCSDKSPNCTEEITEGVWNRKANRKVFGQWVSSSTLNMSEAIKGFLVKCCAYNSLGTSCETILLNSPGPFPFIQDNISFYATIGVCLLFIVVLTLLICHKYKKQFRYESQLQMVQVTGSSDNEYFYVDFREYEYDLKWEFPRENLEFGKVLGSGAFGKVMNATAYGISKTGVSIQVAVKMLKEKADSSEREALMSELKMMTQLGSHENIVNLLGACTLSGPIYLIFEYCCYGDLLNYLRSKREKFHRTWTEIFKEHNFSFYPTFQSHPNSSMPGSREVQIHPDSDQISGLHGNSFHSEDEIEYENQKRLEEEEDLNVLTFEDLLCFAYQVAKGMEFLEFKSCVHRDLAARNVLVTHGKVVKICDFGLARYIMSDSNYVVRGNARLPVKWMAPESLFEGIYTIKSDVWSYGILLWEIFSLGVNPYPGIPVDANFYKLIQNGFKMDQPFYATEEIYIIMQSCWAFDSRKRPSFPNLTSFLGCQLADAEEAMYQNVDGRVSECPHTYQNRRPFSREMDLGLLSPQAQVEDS
Protocol: as §1

[4] = target: T4, FLT3 wt (Homo sapiens, UniProt P36888)
T4 construct: made in house; host or cells: Sf9 insect cells (baculovirus)
T4 sequence (P36888 27-993): T3 sequence (P36888 27-993 D835Y) with Y809D
Protocol: as §1

[5] = target: T5, PDGFR-alpha (Homo sapiens, UniProt P16234)
T5 construct: made in house; host or cells: Sf9 insect cells (baculovirus)
T5 sequence (P16234 24-1089): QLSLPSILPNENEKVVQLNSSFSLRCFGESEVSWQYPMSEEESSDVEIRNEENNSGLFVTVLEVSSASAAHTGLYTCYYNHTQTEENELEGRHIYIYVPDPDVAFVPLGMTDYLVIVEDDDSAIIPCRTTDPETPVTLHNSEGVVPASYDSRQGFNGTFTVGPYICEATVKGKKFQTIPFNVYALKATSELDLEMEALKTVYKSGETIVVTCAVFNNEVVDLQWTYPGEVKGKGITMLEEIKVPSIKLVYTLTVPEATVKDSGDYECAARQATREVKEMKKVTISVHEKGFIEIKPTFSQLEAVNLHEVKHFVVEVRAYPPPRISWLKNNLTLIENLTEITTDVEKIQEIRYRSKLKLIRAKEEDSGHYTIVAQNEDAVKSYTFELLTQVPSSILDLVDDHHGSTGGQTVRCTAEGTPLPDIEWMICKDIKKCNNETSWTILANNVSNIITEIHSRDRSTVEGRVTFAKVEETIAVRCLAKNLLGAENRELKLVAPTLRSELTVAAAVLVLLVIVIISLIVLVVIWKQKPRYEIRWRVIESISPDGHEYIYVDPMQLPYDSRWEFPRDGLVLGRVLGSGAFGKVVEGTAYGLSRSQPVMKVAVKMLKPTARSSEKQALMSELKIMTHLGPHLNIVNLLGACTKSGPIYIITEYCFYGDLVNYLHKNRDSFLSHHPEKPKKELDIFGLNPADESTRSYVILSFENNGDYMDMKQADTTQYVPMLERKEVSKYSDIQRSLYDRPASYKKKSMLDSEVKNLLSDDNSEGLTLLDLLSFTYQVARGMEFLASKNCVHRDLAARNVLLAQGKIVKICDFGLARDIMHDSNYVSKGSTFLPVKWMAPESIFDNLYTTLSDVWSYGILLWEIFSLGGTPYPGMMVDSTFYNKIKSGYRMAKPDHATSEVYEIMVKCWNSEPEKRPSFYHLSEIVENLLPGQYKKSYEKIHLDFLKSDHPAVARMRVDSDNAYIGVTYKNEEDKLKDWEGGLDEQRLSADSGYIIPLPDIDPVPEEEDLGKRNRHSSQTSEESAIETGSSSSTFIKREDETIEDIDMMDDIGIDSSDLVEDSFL
Protocol: as §1

[6] = target: T6, PDGFR-beta (Homo sapiens, UniProt P09619)
T6 construct: made in house; host or cells: Sf9 insect cells (baculovirus)
T6 sequence (P09619 33-1106): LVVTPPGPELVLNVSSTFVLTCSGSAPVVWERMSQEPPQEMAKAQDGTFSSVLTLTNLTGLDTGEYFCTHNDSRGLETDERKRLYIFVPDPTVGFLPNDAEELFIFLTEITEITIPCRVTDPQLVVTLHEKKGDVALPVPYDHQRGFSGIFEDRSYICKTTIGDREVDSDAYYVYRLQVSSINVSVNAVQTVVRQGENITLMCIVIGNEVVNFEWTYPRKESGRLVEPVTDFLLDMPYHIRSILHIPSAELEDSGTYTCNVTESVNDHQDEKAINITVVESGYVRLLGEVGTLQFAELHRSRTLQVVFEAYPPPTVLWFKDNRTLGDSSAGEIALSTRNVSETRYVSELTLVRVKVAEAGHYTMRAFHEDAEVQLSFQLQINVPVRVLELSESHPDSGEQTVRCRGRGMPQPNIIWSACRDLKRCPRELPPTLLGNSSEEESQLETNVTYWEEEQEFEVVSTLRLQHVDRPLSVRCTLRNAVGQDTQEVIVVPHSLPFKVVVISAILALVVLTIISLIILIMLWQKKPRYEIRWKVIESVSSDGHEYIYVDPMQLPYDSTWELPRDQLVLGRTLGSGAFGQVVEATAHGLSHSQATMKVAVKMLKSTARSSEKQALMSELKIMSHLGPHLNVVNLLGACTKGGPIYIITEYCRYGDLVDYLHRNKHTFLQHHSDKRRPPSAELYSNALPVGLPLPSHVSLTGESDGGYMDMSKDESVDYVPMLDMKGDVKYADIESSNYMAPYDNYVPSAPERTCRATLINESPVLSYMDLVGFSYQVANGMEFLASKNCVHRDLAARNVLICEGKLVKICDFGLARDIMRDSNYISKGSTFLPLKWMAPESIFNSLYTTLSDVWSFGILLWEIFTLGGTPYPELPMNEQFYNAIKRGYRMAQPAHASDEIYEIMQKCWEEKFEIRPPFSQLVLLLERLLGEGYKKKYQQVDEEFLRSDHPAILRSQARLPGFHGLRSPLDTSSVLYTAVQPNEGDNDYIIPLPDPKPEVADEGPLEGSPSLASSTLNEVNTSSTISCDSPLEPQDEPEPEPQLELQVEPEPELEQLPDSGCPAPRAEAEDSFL
Protocol: as §1

[7] = target: T7, Aurora B (Homo sapiens, UniProt Q96GD4)
T7 construct: made in house; host or cells: Sf9 insect cells (baculovirus)
T7 sequence (Q96GD4 whole entry): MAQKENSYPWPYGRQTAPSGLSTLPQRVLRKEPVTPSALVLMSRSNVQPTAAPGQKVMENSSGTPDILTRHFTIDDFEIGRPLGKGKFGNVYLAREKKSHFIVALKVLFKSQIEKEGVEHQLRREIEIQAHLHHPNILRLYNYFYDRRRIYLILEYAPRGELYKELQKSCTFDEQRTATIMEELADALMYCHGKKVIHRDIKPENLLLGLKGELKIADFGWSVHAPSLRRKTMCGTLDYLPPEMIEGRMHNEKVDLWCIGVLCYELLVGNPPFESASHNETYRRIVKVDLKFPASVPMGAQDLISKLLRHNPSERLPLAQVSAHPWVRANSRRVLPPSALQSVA
Protocol: as §1

[8] = target: T8, MAP4K4 (Homo sapiens, UniProt O95819)
T8 construct: made in house; host or cells: Sf9 insect cells (baculovirus)
Protocol: as §1

[9] = target: T9, PLK4 (Homo sapiens, UniProt O00444)
T9 construct: made in house; host or cells: Sf9 insect cells (baculovirus)
T9 sequence (O00444 1-970): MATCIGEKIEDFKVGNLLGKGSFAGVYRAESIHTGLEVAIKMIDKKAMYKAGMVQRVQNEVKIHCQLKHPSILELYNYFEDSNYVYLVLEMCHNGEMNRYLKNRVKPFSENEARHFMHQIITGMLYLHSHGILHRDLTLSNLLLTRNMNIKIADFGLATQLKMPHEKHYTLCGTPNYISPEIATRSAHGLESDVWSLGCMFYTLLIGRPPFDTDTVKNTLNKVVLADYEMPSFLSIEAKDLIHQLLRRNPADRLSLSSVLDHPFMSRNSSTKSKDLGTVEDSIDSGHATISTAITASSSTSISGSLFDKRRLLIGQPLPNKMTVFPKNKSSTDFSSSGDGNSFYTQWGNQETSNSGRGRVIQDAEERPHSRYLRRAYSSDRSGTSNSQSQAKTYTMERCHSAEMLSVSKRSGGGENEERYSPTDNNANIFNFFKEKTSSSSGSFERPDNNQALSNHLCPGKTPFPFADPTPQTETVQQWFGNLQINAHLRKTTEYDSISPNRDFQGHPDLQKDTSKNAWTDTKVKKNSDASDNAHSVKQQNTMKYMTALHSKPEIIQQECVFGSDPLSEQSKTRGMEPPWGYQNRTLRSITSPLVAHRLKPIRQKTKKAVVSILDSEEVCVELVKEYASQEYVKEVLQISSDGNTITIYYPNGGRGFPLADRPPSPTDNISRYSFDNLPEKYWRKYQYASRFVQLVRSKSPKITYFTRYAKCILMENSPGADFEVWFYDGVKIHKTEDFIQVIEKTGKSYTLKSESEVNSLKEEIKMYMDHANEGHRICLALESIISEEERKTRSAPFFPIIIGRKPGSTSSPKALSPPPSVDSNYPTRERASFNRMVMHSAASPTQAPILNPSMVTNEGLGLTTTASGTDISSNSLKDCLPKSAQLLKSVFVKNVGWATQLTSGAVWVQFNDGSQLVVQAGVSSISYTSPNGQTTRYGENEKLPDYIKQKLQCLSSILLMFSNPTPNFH
Protocol: as §1

[10] = target: T10, PRKG2 (Homo sapiens, UniProt Q13237)
T10 construct: made in house; host or cells: Sf9 insect cells (baculovirus)
T10 sequence (Q13237 1-762): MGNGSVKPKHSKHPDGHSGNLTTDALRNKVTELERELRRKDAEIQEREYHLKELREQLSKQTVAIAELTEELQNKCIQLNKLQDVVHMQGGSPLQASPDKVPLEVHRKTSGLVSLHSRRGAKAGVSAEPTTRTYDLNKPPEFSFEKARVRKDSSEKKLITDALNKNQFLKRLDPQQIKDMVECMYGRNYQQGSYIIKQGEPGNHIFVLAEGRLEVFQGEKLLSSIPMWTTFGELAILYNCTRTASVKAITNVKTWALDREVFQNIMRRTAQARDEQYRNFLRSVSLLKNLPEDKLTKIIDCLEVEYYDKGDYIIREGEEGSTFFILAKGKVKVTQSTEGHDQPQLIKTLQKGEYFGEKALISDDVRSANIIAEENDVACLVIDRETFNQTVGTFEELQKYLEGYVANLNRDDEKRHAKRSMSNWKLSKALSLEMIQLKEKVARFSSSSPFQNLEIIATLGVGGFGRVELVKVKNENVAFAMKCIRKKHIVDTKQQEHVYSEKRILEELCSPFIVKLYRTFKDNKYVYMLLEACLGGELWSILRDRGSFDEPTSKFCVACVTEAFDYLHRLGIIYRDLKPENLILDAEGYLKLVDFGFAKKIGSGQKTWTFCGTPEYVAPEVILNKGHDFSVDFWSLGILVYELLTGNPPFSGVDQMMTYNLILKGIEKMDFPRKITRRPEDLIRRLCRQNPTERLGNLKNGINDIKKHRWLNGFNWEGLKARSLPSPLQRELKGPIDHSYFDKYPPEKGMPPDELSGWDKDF
Protocol: as §1

[11] = target: T11, RSK1 (Homo sapiens, UniProt Q15418)
T11 construct: made in house; host or cells: Sf9 insect cells (baculovirus)
T11 sequence (Q15418 whole entry): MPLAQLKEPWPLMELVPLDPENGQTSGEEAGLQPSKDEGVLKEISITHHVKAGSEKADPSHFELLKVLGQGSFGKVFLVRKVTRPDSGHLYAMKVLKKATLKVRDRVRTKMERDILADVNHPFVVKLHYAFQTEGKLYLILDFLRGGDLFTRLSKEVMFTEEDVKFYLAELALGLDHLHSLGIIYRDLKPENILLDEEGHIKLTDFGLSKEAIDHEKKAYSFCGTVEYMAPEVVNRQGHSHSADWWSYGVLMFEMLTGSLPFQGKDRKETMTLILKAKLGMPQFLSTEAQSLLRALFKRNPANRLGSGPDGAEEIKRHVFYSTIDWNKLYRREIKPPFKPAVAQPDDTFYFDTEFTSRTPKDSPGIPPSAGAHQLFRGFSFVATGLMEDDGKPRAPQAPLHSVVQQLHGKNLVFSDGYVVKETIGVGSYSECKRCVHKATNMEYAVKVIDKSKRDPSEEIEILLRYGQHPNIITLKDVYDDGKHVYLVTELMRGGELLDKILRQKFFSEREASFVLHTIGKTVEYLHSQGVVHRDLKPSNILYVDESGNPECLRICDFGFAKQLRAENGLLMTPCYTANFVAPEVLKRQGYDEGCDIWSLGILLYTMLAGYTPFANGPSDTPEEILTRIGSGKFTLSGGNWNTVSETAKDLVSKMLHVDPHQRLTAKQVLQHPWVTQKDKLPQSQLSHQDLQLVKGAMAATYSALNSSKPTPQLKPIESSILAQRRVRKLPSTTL
Protocol: as §1

[12] = target: T12, RSK2 (Homo sapiens, UniProt P51812)
T12 construct: made in house; host or cells: Sf9 insect cells (baculovirus)
Protocol: as §1

[13] = target: T13, RSK3 (Homo sapiens, UniProt Q15349)
T13 construct: made in house; host or cells: Sf9 insect cells (baculovirus)
Protocol: as §1

[14] = target: T14, RSK4 (Homo sapiens, UniProt Q9UK32)
T14 construct: made in house; host or cells: Sf9 insect cells (baculovirus)
Protocol: as §1

T1 sequence (O96017 whole entry): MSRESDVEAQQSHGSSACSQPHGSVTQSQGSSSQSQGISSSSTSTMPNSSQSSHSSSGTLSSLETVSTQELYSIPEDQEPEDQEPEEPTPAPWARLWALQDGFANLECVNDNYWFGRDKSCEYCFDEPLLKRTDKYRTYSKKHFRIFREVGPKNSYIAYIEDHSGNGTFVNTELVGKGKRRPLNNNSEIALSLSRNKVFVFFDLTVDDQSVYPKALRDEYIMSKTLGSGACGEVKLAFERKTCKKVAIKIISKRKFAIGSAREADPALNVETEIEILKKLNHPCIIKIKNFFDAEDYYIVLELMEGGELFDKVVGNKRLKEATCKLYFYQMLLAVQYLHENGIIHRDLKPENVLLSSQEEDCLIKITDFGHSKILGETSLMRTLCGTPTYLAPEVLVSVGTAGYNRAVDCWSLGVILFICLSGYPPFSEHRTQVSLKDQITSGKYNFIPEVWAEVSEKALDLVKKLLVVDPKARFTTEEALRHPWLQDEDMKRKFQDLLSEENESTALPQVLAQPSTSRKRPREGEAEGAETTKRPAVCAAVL

| IC50 [7] [nM] | IC50 [8] [nM] | IC50 [9] [nM] | IC50 [10] [nM] | IC50 [11] [nM] | IC50 [12] [nM] | IC50 [13] [nM] | IC50 [14] [nM] | Compound | IC50 [1] [nM] | IC50 [2] [nM] | IC50 [3] [nM] | IC50 [4] [nM] | IC50 [5] [nM] | IC50 [6] [nM] |
| --- | --- | --- | --- | --- | --- | --- | --- | --- | --- | --- | --- | --- | --- | --- |
| – | – | – | – | – | – | – | – | NC(=O)CCn1c2ccccc2c2c3c(c4c5ccccc5[nH]c4c21)C(=O)NC3=O [PQ-041, 12-(2-Carbamidoethyl)-6,7,12,13-tetrahydro-5,1 dioxo-5H-indolo[2,3-a] pyrrolo [3,4-c]-carbazole] | 740 | 2400 | 3.9 | 5.6 | 130 | 150 |
| – | – | – | – | – | – | – | – | CN(C)CCCn1c2ccc(O)cc2c2c3c(c4c5cc(O)ccc5n(C)c4c21)C(=O)NC3=O [PQ-012, 12-(3-Dimethylaminopropyl)-6,7,12,13-tetrahydro-3,9-dihydroxy-12-methyl-5,7 dioxo-5H-indolo[2,3-a] pyrrolo [3,4-c]-carbazole] | 23 | 14 | < 3 | < 3 | < 3 | < 3 |
| – | – | – | – | – | – | – | – | COc1ccc2c(c1)c1c3c(c4c5ccccc5n(C)c4c1n2CCC#N)C(=O)NC3=O [PQ-014, 13-(2-Cyanoethyl)-6,7,12,13-tetrahydro-3-methoxy-12-methyl-5,7 dioxo-5H-indolo[2,3-a] pyrrolo [3,4-c]-carbazole] | 2100 | 1200 | 3.5 | 4.6 | 110 | 130 |
| – | – | – | – | – | – | – | – | Cn1c2ccccc2c2c3c(c4c5ccccc5[nH]c4c21)C(=O)NC3=O [PQ-042, 6,7,12,13-Tetrahydro-12-methyl-5,7 dioxo-5H-indolo [2,3-a] pyrrolo [3,4-c]-carbazole] | > 10000 | > 10000 | 68 | 380 | > 10000 | > 10000 |
| – | – | – | – | – | – | – | – | CN(C)CC(O)Cn1c2ccc(O)cc2c2c3c(c4c5cc(O)ccc5n(C)c4c21)C(=O)NC3=O (racemic) | 22000 | 1000 | 64 | 110 | 2000 | 700 |
| 210 | 35 | 180 | 67 | 23 | 430 | 170 | 78 | COc1ccc2[nH]c3c(c4c(c5c6cc(OC)ccc6n(C)c35)C(=O)NC4=O)c2c1 [PQ-013, 6,7,12,13-Tetrahydro-3,9-dimethoxy-12-methyl-5,7 dioxo-5H-indolo [2,3-a] pyrrolo [3,4-c]-carbazole] | 40 | 36000 | < 3 | 4.6 | 10 | 19 |
